Patent US8394821B2, “Activated blood coagulation factor inhibitor” (Daiichi Sankyo Company, Limited, priority 2009, dated 2013)
≈ marks a conversion by molar mass, not a printed value. Like-named read-outs stand apart in the source and are kept apart here.

Experiments:
Assay type in all cases: physicochemical
[1] = Evaluation of chemical stability (dry heat, wet heat, light irradiation; HPLC residue); settings: for Residue (%, mean ± SD) Light irradiation (Lx · hr) 60 × 10^4: light irradiation 60 × 10^4 Lx · hr; for Residue (%, mean ± SD) Light irradiation (Lx · hr) 120 × 10^4: light irradiation 120 × 10^4 Lx · hr; for Residue (%, mean ± SD) 50° C., 0% RH 1 week later / Residue (%, mean ± SD) 50° C., 0% RH 2 week later: dry heat 50° C.; for Residue (%, mean ± SD) 50° C., 0% RH 2 week later / Residue (%, mean ± SD) 40° C., 75% RH 2 week later: 2 weeks; for Residue (%, mean ± SD) 40° C., 75% RH 1 week later / Residue (%, mean ± SD) 40° C., 75% RH 2 week later: wet heat 40° C.
Method: Approximately 2 mg of each of various samples prepared in Example 1 was weighed into an aluminum pan for thermal analysis and stored under dry heat (50° C., 0% RH) or wet heat (40° C., 75% RH) conditions. 1 week or 2 weeks later, each sample was collected, and the weight change was measured. Then, the whole amount was dissolved in 20 mL of eluent and analyzed by HPLC. For photolysis samples, approximately 10 mg of each sample was weighed into a weighing bottle and stored at 25° C. in a light irradiator. After irradiation at 600,000 or 1,200,000 Lx/hr, the sample was collected, and the weight change was measured. Then, the whole amount was dissolved in 100 mL of eluent and analyzed by HPLC. The residue proportion was determined from the ratio between the concentration of the sample solution calculated from a calibration curve prepared before measurement and the theoretical concentration calculated from weight measurement.
Measurement conditions of HPLC (column: Waters Symmetry C18 4.6 mm×150 mm, eluent: 0.05 M phosphate buffer (pH 5.0): acetonitrile=80:20, flow rate: 1 mL/min., detection: UV 220 nm, column temperature: 40° C.)

[2] = Evaluation of solubility (37° C., 30 min, HPLC); settings: thermodynamic from solid
Method: A supersaturated amount of each sample was placed in a 12-mL test tube, and 3 mL of a test solution (water, Japanese Pharmacopoeia disintegration test solution No. 1 (JP1), and Japanese Pharmacopoeia disintegration test solution No. 2 (JP2)) was added thereto. The test tube was incubated in a constant-temperature water bath at 37° C. The test tube was shaken using a vortex mixer for 30 seconds every 5 minutes. 30 minutes later, the supernatant was filtered through a membrane filter (pore size: 0.45 μm), appropriately diluted with eluent, and then analyzed by HPLC under the following conditions. The concentration was calculated from a calibration curve prepared before measurement.
Measurement conditions of HPLC (column: Waters Symmetry C18 4.6 mm×150 mm, eluent: 0.05 M phosphate buffer (pH 5.0): acetonitrile=70:30, flow rate: 1 mL/min., detection: UV 220 nm, column temperature: 40° C.)

[3] = Evaluation of crystal stability (storage at 25° C. at adjusted relative humidity); settings: for 0% RH Weight change (%) / 52% RH Weight change (%) / 93% RH Weight change (%): 25° C., 3-day storage
Method: Approximately 50 mg of each of various samples prepared in Example 1 was placed in a weighing bottle and stored at 25° C. in a desiccator whose relative humidity was adjusted to 0%, 52%, or 93% by a saturated salt solution method (silica gel, Mg(NO3)2, KNO3). […]

[4] = Moisture absorption and desorption characteristics (microbalance, water vapor adsorption apparatus); settings: 25° C., 10-90% RH
Method: Various samples prepared in Example 1 were separately placed in quartz holders and measured for their moisture absorption and desorption behavior under the following conditions using a microbalance.
Moisture absorption and desorption behavior measurement conditions (sample volume: approximately 20 mg, measurement range: 10-90% RH, measurement temperature: 25° C., variable: within 0.03%, varying length of time: 10 min., apparatus: VTI atmospheric pressure-type automatic water vapor adsorption apparatus SGA-100)

Light irradiation Color ([1]; 25° C., after light irradiation)	Residue (%, mean ± SD) Light irradiation (Lx · hr) 60 × 10^4 ([1]; 25° C.) [%]	Residue (%, mean ± SD) Light irradiation (Lx · hr) 120 × 10^4 ([1]; 25° C.) [%]	Residue (%, mean ± SD) 50° C., 0% RH 1 week later [1] [%]	Residue (%, mean ± SD) 50° C., 0% RH 2 week later [1] [%]	Residue (%, mean ± SD) 40° C., 75% RH 1 week later [1] [%]	Residue (%, mean ± SD) 40° C., 75% RH 2 week later [1] [%]	solubility at 30 min ([2]; pH 1.2, simulated gastric fluid, Japanese Pharmacopoeia disintegration test solution No. 1, 37° C., read-out: JP1 (Solubility (μg/mL))) [µg/mL]	solubility at 30 min ([2]; pH 6.8, aqueous buffer, Japanese Pharmacopoeia disintegration test solution No. 2, 37° C., read-out: JP2 (Solubility (μg/mL))) [µg/mL]	solubility at 30 min ([2]; water, 37° C., read-out: Water (Solubility (μg/mL))) [µg/mL]	0% RH Weight change (%) [3] [%]	52% RH Weight change (%) [3] [%]	93% RH Weight change (%) [3] [%]	SMILES	stability on storage: weight and crystal form (in words) ([3]; stored for 3 days under three standard relative humidity conditions at 25° C.)	moisture absorption and desorption characteristics/behavior (in words) [4]
Changed	92.0 ± 0.3	82.8 ± 0.4	99.3 ± 0.4	97.5 ± 0.7	99.8 ± 0.3	98.7 ± 1.3	> 2000	49.8 (≈ 90.9 µM)	47.5 (≈ 86.7 µM)	−0.32	−0.22	−0.04	CN1CCc2nc(C(=O)N[C@@H]3C[C@@H](C(=O)N(C)C)CC[C@@H]3NC(=O)C(=O)Nc3ccc(Cl)cn3)sc2C1 [Compound A, N^1-(5-chloropyridin-2-yl)-N^2-((1S,2R,4S)-4-[(dimethylamino)carbonyl]-2-{[(5-methyl-4,5,6,7-tetrahydrothiazolo[5,4-c]pyridin-2-yl)carbonyl]amino}cyclohexyl)ethanediamide]	–	–
–	98.2 ± 0.9	95.0 ± 1.2	100.4 ± 0.7	100.1 ± 0.7	100.1 ± 0.7	100.1 ± 0.3	–	–	–	−0.35	0.05	0.31	CN1CCc2nc(C(=O)N[C@@H]3C[C@@H](C(=O)N(C)C)CC[C@@H]3NC(=O)C(=O)Nc3ccc(Cl)cn3)sc2C1.O.O=C(O)C(O)C(O)C(=O)O [compound II, N^1-(5-chloropyridin-2-yl)-N^2-((1S,2R,4S)-4-[(dimethylamino)carbonyl]-2-{[(5-methyl-4,5,6,7-tetrahydrothiazolo[5,4-c]pyridin-2-yl)carbonyl]amino}cyclohexyl)ethanediamide(+)-tartrate monohydrate]	stable without change both in weight and in crystal form	favorable moisture absorption and desorption characteristics
